From patent US20080220445A1, “Method of Screening Transmembrane Enzyme Inhibitory Substance” (TAKEDA PHARMACEUTICAL COMPANY LIMITED, priority 2004, published 2008)

Experiments:
[1] = target: T1, BACE1-454 (extracellular domain of β-secretase) (Homo sapiens, UniProt P56817); test: Inhibitory action on BACE protein, fluorescence-quenched peptide substrate; type: biochemical; settings: final concentration: 10 μM; 37° C. for 63 hr; pH 5.5
T1 construct: made in house; host or cells: FreeStyle 293-F cells (HEK293), culture supernatant
T1 sequence (P56817 with tags, fused parts or gaps): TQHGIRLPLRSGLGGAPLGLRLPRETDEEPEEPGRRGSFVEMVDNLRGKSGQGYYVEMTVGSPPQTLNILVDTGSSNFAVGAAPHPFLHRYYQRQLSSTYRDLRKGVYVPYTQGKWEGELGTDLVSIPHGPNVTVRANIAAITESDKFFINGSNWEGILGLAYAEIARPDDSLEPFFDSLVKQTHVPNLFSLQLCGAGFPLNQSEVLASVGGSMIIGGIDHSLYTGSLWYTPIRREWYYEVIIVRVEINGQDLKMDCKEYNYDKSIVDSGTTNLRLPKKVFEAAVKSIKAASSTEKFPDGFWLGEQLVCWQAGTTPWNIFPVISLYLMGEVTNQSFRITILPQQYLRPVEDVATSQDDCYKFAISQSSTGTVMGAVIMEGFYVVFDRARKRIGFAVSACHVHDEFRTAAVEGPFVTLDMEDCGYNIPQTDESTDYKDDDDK
Method: (§1) To 96 black well plate, 25 μl of 0.05 M acetate buffer (pH 5.5), 10 μl of 250 μM substrate (Nma-Ser-Glu-Val-Lys-Met-Asp-Ala-Glu-Lys(Dnp)-Arg-Arg-NH2; SEQ ID NO: 11), 10 μl of BACE1-474 (0.02 mg/ml) or BACE1-454 (0.01 mg/ml) obtained from the above-mentioned Reference Example 5 or a recombinant human BACE-1 (amino acid residues 1-460, R & D Systems) (0.025 mg/ml) commercially available as an extracellular domain, and 5 μl of each compound in 10% DMSO solution, and as a control, 5 μl of 10% DMSO were added respectively, and allowed to be reacted at 37° C. for 63 hr. After completion of the reaction, the fluorescence intensity (excitation wavelength at 325 nm, measurement wavelength at 460 nm) was measured with Fluoroscan ASCENT.

[2] = target: T2, BACE1-474 (extracellular domain and transmembrane domain of β-secretase) (Homo sapiens, UniProt P56817); test: as above; type: biochemical; settings: final concentration: 10 μM; 37° C. for 63 hr; pH 5.5; read-out: inhibition rates on BACE1-474
T2 construct: made in house; host or cells: FreeStyle 293-F cells (HEK293)
T2 sequence (P56817 with tags, fused parts or gaps): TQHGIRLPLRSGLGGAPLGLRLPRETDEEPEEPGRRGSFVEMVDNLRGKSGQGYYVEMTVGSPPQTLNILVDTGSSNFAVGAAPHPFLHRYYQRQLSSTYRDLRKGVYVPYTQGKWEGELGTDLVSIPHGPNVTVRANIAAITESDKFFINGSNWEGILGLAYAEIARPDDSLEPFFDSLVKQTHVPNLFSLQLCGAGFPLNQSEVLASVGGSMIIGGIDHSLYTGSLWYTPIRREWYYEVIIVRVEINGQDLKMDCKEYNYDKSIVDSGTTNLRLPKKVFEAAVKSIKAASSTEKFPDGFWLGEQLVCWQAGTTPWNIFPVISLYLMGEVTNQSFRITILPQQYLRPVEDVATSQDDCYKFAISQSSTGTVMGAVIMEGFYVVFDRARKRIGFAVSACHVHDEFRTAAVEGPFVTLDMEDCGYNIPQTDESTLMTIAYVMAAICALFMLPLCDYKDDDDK
Method: as §1

[3] = target: T3, recombinant human BACE-1 (amino acid residues 1-460, R & D Systems) (Homo sapiens, UniProt P56817); test: as above; type: biochemical; settings: final concentration: 10 μM; 37° C. for 63 hr; pH 5.5
T3 construct: a recombinant human BACE-1 (amino acid residues 1-460, R & D Systems); purchased R & D Systems
T3 sequence (P56817 22-460): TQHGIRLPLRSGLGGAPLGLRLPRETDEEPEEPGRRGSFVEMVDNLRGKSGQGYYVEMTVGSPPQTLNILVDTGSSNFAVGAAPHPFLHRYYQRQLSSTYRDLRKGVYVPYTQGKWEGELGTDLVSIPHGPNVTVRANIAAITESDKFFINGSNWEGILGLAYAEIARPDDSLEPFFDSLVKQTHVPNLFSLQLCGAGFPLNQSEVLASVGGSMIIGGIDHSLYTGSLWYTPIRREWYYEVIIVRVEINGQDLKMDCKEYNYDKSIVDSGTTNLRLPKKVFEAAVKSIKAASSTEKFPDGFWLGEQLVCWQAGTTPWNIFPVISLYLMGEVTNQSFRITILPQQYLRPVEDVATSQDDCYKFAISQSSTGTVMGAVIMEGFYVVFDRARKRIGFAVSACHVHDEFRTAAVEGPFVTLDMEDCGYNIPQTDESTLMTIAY
Method: as §1

BACE1-471 = target: T4, BACE1-471 (Homo sapiens, UniProt P56817); test: Inhibitory action on BACE1-471, fluorescence-quenched peptide substrate; type: biochemical; settings: pH 5.5; final concentration: 10 μM; 37° C. for 50 hr; pH5.5; read-out: inhibition rates on BACE1-471
T4 construct: made in house; host or cells: FreeStyle 293-F cells (HEK293)
T4 sequence (P56817 with tags, fused parts or gaps): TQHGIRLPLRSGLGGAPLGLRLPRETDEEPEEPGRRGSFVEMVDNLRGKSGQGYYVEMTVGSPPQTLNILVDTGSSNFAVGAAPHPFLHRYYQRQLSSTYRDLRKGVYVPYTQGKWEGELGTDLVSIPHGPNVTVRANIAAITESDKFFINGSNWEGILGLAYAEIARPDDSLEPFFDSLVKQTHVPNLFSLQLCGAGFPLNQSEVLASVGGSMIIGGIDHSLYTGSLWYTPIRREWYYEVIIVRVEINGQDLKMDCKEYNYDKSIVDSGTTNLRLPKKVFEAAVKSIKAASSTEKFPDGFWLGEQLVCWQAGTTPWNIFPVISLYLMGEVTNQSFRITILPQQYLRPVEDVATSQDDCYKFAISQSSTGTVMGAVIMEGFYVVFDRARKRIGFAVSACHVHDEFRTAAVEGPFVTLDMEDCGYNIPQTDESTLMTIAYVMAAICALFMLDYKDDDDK
Method: (§2) To 96 black well plate, 25 μl of 0.05M acetate buffer (pH5.5), 10 μl of 250 μM substrate (Nma-Ser-Glu-Val-Lys-Met-Asp-Ala-Glu-Lys(Dnp)-Arg-Arg-NH2; SEQ ID NO: 11), 10 μl of BACE1-471 (0.05 mg/ml) or BACE1-465 (0.04 mg/ml) obtained from the above-mentioned Reference Example 7, and 5 μl of 0.1 mM Compound A in 10% DMSO solution, and as a control, 5 μl of 10% DMSO were added respectively, and allowed to be reacted at 37° C. for 50 hr for BACE1-471 and for 22 hr for BACE1-465. After completion of the reaction, the fluorescence intensity (excitation wavelength at 325 nm, measurement wavelength at 460 nm) was measured with Fluoroscan ASCENT.

BACE1-465 = target: T5, BACE1-465 (Homo sapiens, UniProt P56817); test: Inhibitory action on BACE1-465, fluorescence-quenched peptide substrate; type: biochemical; settings: final concentration: 10 μM; 37° C. for 22 hr; pH5.5
T5 construct: made in house; host or cells: FreeStyle 293-F cells (HEK293), culture supernatant
T5 sequence (P56817 with tags, fused parts or gaps): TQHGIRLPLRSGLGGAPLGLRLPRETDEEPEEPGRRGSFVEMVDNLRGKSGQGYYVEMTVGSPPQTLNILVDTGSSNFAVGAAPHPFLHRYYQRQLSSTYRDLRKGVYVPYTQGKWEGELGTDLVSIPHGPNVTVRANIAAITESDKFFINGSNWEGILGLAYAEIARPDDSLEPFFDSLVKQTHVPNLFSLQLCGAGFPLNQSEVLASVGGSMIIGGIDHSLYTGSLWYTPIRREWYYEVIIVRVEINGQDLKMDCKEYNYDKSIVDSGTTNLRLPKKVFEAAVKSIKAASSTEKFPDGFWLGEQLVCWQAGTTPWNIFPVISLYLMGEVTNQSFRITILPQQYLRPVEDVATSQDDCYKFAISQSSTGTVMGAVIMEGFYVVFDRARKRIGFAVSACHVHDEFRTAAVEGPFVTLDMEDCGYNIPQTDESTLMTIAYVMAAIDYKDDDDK
Method: as §2

BACE1-501 = target: T6, BACE1-501 (Homo sapiens, UniProt P56817); test: Detection of binding by surface plasmon resonance (Biacore3000); settings: PBS containing 10% DMSO and 0.005% Surfactant P20
T6 construct: Expression of full-length β-secretase protein (BACE1-501) was performed with FreeStyle 293 Expression System; made in house; host or cells: FreeStyle 293-F cells (HEK293)
T6 sequence (P56817 with tags, fused parts or gaps): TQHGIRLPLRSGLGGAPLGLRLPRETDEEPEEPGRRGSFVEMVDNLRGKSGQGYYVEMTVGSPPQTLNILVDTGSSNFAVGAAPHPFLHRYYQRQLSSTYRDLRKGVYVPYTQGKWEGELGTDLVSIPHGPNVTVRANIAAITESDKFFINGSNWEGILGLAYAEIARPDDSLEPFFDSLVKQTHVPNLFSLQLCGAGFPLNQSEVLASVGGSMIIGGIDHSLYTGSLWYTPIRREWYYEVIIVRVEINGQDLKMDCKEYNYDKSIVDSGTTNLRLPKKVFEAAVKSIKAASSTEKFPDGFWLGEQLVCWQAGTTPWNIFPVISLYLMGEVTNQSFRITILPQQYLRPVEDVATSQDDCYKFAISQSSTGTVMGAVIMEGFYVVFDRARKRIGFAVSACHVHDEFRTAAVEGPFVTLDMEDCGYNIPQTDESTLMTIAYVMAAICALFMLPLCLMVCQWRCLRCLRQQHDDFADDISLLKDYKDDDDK
Description: Biacore3000 (Biacore) was used for analysis by surface plasmon resonance. BACE1-501 and the recombinant human BACE-1 (amino acid residue 1-460) were immobilized to carboxyl groups on CM5 sensorchip (carboxymethylated dextran matrix chip) activated with N-hydrosuccinimide (NHS)/N-ethyl-N′-(3-dimethyl-aminopropyl)-carbodiimide hydrochloride (EDC) in acetate buffer at pH 4.5. BACE1-454 and BACE1-474 were immobilized by the same way in acetate buffer at pH 4.0. The binding of the compound and the enzymes was measured in PBS containing 10% DMSO and 0.005% Surfactant P20. The correction of the difference of Resonance Unit (RU) value among flow cells resulting from the bulk effect was carried out with a correction curve made using the buffers with the DMSO concentration varied from 9% to 11% in the five-graded. As a result, signals showing the binding of each compound to BACE1-501 and BACE1-474 were observed. On the other hand, for BACE1-454 and the recombinant human BACE-1 (amino acid residue 1-460), no signal was observed showing the binding.

SMILES	inhibitory activity on BACE1-454 [1]	inhibition at 10 µM [2] [%]	inhibitory activity on the recombinant human BACE-1 [3]	inhibition at 10 µM (BACE1-471) [%]	inhibitory activity on BACE1-465 (BACE1-465)	SPR signal showing the binding to BACE1-501 (BACE1-501)
CN(C)CC[C@@H]1CCc2cc(OCc3ccc(-c4ccccc4)cc3)ccc2C1 [Compound A]	no inhibitory activity	30	no inhibitory activity	29	no inhibitory activity	–
CCN(CC)CCC1CCc2cc(OCc3ccc(-c4ccccc4)cc3)ccc2C1 (centres unmarked) [Compound D]	no inhibitory activity	38	no inhibitory activity	42	no inhibitory activity	–
C[N+](C)([O-])CC[C@@H]1CCc2cc(OCc3ccc(-c4ccccc4)cc3)ccc2C1 [Compound H]	no inhibitory activity	34	no inhibitory activity	31	no inhibitory activity	–
NCCC1CCc2cc(OCc3ccc(-c4ccccc4)cc3)ccc2C1 (centres unmarked) [Compound I]	no inhibitory activity	37	no inhibitory activity	70	no inhibitory activity	–
Cc1ccc(-c2ccc(COc3ccc4c(c3)CC[C@@H](CCN(C)C)C4)cc2)cc1 [Compound J]	no inhibitory activity	37	no inhibitory activity	48	no inhibitory activity	binding
